Source: patent US20260256792A1, “TREATMENT OF CHRONIC SPONTANEOUS URTICARIA BY ADMINISTERING (R)-2-[3-[4-AMINO-3-(2-FLUORO-4-PHENOXY-PHENYL)PYRAZOLO[3,4-D]PYRIMIDIN-1-YL]PIPERIDINE-1-CARBONYL]-4-METHYL-4-[4-(OXETAN-3-YL)PIPERAZIN-1-YL]PENT-2-ENENITRILE” (priority 2023, published 2026)

System: moderate-to-severe chronic spontaneous urticaria (CSU)
Experiment: Phase 2 CSU study: urticaria control test (UCT)
Assay type: in vivo, human
Parameters: key to UCT, Mean / UCT, Median / UCT change from baseline, Mean / UCT change from baseline, Median: UCT total = sum of 4 item scores; low = low disease control
Description: The study comprises a 12 week, randomized, double-blind, placebo-controlled, multi-center, dose-ranging efficacy and safety phase, followed by a 40 week open label extension (OLE) phase (see FIG. 1). The study consists of three phases and an optional OLE phase. […] To this end, the UCT was proposed as a tertiary endpoint in this study. […] The dermatology life quality index (DLQI) was proposed as a tertiary endpoint in this study. […] Low scores indicate high disease activity and low disease control. The UCT total score is calculated by adding all 4 individual item scores. […] The recall period is the previous 4 weeks. Patients were to complete the UCT questionnaire during their site visit.

[1] = 400 mg BID, End of study, omalizumab-naïve population
[2] = 400 mg BID, End of study, prior omalizumab use incl. incomplete responders
[3] = 400 mg BID, Week 4, ITT population
[4] = 400 mg BID, Week 4, omalizumab-naïve population
[5] = 400 mg BID, Week 4, prior omalizumab use incl. incomplete responders
[6] = 400 mg BID, Week 8, ITT population
[7] = 400 mg BID, Week 8, omalizumab-naïve population
[8] = 400 mg BID, Week 8, prior omalizumab use incl. incomplete responders
[9] = 400 mg BID, Week 12, ITT population
[10] = 400 mg BID, Week 12, omalizumab-naïve population
[11] = 400 mg BID, Week 12, prior omalizumab use incl. incomplete responders
[12] = 400 mg QPM, End of study, omalizumab-naïve population
[13] = 400 mg QPM, End of study, prior omalizumab use incl. incomplete responders
[14] = 400 mg QPM, Week 4, ITT population
[15] = 400 mg QPM, Week 4, omalizumab-naïve population
[16] = 400 mg QPM, Week 4, prior omalizumab use incl. incomplete responders

Structure (SMILES): CC(C)(C=C(C#N)C(=O)N1CCC[C@@H](n2nc(-c3ccc(Oc4ccccc4)cc3F)c3c(N)ncnc32)C1)N1CCN(C2COC2)CC1 [rilzabrutinib, (R)-2-[3-[4-amino-3-(2-fluoro-4-phenoxy-phenyl)pyrazolo[3,4-d]pyrimidin-1-yl]piperidine-1-carbonyl]-4-methyl-4-[4-(oxetan-3-yl)piperazin-1-yl]pent-2-enenitrile]
- UCT change from baseline, Mean [1]: 0.00
- UCT change from baseline, Median [1]: −2.00
- UCT percent change from baseline, Mean [1]: −21.27%
- UCT percent change from baseline, Median [1]: −57.14%
- UCT, Median [1]: 3.00
- UCT change from baseline, Median [2]: 5.50
- UCT percent change from baseline, Mean [2]: 4.33%
- UCT percent change from baseline, Median [2]: 4.00%
- UCT, Mean [2]: 2.67
- UCT, Median [2]: 3.00
- UCT % Change difference for rilzabrutinib vs. placebo LS Mean (95% CI) [3]: 96.74 (−24.75, 218.23) %
- UCT % Change from baseline LS Mean (SE) [3]: 236.29 (42.88) %
- UCT Change difference for rilzabrutinib vs. placebo LS Mean (95% CI) [3]: 0.94 (−0.87, 2.75)
- UCT Change from baseline LS Mean (SE) [3]: 4.27 (0.65)
- UCT Post-baseline Mean (SD) [3]: 8.56 (4.95)
- UCT % Change difference for rilzabrutinib vs. placebo LS Mean (95% CI) [4]: 120.19 (−1.20, 241.59) %
- UCT % Change from baseline LS Mean (SE) [4]: 263.00 (44.80) %
- UCT Change difference for rilzabrutinib vs. placebo LS Mean (95% CI) [4]: 1.27 (−0.56, 3.11)
- UCT Change from baseline LS Mean (SE) [4]: 4.51 (0.66)
- UCT Post-baseline Mean (SD) [4]: 8.85 (4.53)
- UCT change from baseline, Mean [4]: 4.21
- UCT change from baseline, Median [4]: 4.00
- UCT percent change from baseline, Mean [4]: 220.19%
- UCT percent change from baseline, Median [4]: 75.00%
- UCT, Mean [4]: 8.85
- UCT, Median [4]: 9.00
- UCT change from baseline, Mean [5]: 4.33
- UCT change from baseline, Median [5]: 4.00
- UCT percent change from baseline, Mean [5]: 151.39%
- UCT percent change from baseline, Median [5]: 137.50%
- UCT, Median [5]: 5.50
- UCT % Change difference for rilzabrutinib vs. placebo LS Mean (95% CI) [6]: 139.58 (18.06, 261.09) %
- UCT % Change from baseline LS Mean (SE) [6]: 304.12 (43.11) %
- UCT Change difference for rilzabrutinib vs. placebo LS Mean (95% CI) [6]: 1.01 (−0.90, 2.92)
- UCT Change from baseline LS Mean (SE) [6]: 5.38 (0.68)
- UCT Post-baseline Mean (SD) [6]: 10.00 (4.71)
- UCT % Change difference for rilzabrutinib vs. placebo LS Mean (95% CI) [7]: 158.55 (28.05, 289.04) %
- UCT % Change from baseline LS Mean (SE) [7]: 328.12 (46.96) %
- UCT Change difference for rilzabrutinib vs. placebo LS Mean (95% CI) [7]: 1.14 (−0.74, 3.02)
- UCT Change from baseline LS Mean (SE) [7]: 5.61 (0.69)
- UCT Post-baseline Mean (SD) [7]: 10.12 (4.20)
- UCT change from baseline, Mean [7]: 5.70
- UCT change from baseline, Median [7]: 5.00
- UCT percent change from baseline, Mean [7]: 290.62%
- UCT percent change from baseline, Median [7]: 114.29%
- UCT change from baseline, Median [8]: 11.00
- UCT percent change from baseline, Mean [8]: 248.33%
- UCT percent change from baseline, Median [8]: 275.00%
- UCT, Mean [8]: 9.20
- UCT, Median [8]: 14.00
- UCT % Change difference for rilzabrutinib vs. placebo LS Mean (95% CI) [9]: 109.34 (−24.34, 243.02) %
- UCT % Change from baseline LS Mean (SE) [9]: 309.12 (47.68) %
- UCT Change difference for rilzabrutinib vs. placebo LS Mean (95% CI) [9]: 0.71 (−1.27, 2.68)
- UCT Change from baseline LS Mean (SE) [9]: 5.44 (0.71)
- UCT Post-baseline Mean (SD) [9]: 9.92 (4.69)
- UCT % Change difference for rilzabrutinib vs. placebo LS Mean (95% CI) [10]: 146.79 (5.56, 288.02) %
- UCT % Change from baseline LS Mean (SE) [10]: 344.03 (53.11) %
- UCT Change difference for rilzabrutinib vs. placebo LS Mean (95% CI) [10]: 0.80 (−1.21, 2.81)
- UCT Change from baseline LS Mean (SE) [10]: 5.52 (0.74)
- UCT Post-baseline Mean (SD) [10]: 10.03 (4.29)
- UCT change from baseline, Mean [10]: 5.65
- UCT change from baseline, Median [10]: 4.00
- UCT percent change from baseline, Mean [10]: 301.53%
- UCT percent change from baseline, Median [10]: 130.95%
- UCT change from baseline, Median [11]: 8.00
- UCT percent change from baseline, Mean [11]: 246.67%
- UCT percent change from baseline, Median [11]: 266.67%
- UCT, Mean [11]: 9.20
- UCT change from baseline, Mean [12]: 8.50
- UCT change from baseline, Median [12]: 8.50
- UCT percent change from baseline, Mean [12]: 283.33%
- UCT percent change from baseline, Median [12]: 283.33%
- UCT change from baseline, Mean [13]: 8.00
- UCT change from baseline, Median [13]: 8.00
- UCT percent change from baseline, Mean [13]: 3.00%
- UCT percent change from baseline, Median [13]: 3.00%
- UCT, Mean [13]: 5.00
- UCT, Median [13]: 5.00
- UCT % Change difference for rilzabrutinib vs. placebo LS Mean (95% CI) [14]: −44.03 (−169.40, 81.34) %
- UCT % Change from baseline LS Mean (SE) [14]: 95.52 (42.85) %
- UCT Change difference for rilzabrutinib vs. placebo LS Mean (95% CI) [14]: −0.89 (−2.79, 1.00)
- UCT Change from baseline LS Mean (SE) [14]: 2.44 (0.68)
- UCT Post-baseline Mean (SD) [14]: 6.40 (3.11)
- UCT % Change difference for rilzabrutinib vs. placebo LS Mean (95% CI) [15]: −48.50 (−174.55, 77.55) %
- UCT % Change from baseline LS Mean (SE) [15]: 94.30 (43.68) %
- UCT Change difference for rilzabrutinib vs. placebo LS Mean (95% CI) [15]: −0.88 (−2.74, 0.99)
- UCT Change from baseline LS Mean (SE) [15]: 2.36 (0.66)
- UCT Post-baseline Mean (SD) [15]: 6.35 (3.14)
- UCT change from baseline, Mean [15]: 2.27
- UCT change from baseline, Median [15]: 2.00
- UCT percent change from baseline, Mean [15]: 102.47%
- UCT percent change from baseline, Median [15]: 45.00%
- UCT, Median [15]: 6.00
- UCT change from baseline, Mean [16]: 3.00
- UCT change from baseline, Median [16]: 3.00
- UCT percent change from baseline, Mean [16]: 60.00%
- UCT percent change from baseline, Median [16]: 60.00%
- UCT, Mean [16]: 8.00
- UCT, Median [16]: 8.00
